Assay [1] has as its target T1, ULK1 kinase (Homo sapiens, UniProt O75385, E37A/K38A).
T1 construct: (residues 1-283; ID NO: 2); purchased Beryllium
T1 sequence (O75385 1-283 E37A/K38A): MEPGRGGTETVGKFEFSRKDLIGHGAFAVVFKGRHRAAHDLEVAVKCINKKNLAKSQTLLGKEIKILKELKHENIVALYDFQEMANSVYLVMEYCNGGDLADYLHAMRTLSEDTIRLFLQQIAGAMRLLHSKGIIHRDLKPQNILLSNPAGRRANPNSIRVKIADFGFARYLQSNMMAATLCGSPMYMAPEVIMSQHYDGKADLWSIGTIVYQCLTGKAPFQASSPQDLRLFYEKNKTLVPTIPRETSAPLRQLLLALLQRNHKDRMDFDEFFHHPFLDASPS
The assay can be described thus: Biochemical assay for ULK1.3 (coupled pyruvate kinase/lactate dehydrogenase assay). The note with it: 0.1 nM ULK1 (from Beryllium), peptide substrate, 1 mM ATP. The method, then: Example 175. Biochemical Assay for ULK1.3
Activity of ULK1 kinase was determined spectroscopically using a coupled pyruvate kinase/lactate dehydrogenase assay that continuously monitors the ATP hydrolysis-dependent oxidation of NADH (e.g., Schindler et al. Science (2000) 289: 1938-1942). Assays were conducted in 384-well plates (100 uL final volume) using 0.1 nM ULK1 (from Beryllium), 0.075 mM peptide substrate (YANWLAASIYLDGKKK (SEQ ID NO: 5)), 1.5 units pyruvate kinase, 2.1 units lactate dehydrogenase, 1 mM phosphoenol pyruvate, 0.28 mM NADH and 1 mM ATP in assay buffer (100 mM Tris, pH 7.5, 15 mM MgCl2, 0.5 mM DTT, 0.004% (w/v) BSA, and 0.004% Triton X-100). Inhibition of ULK1 was measured by adding serial diluted test compound (final assay concentration of 1% DMSO). A decrease in absorption at 340 nm was monitored continuously for 6 hours at 30° C. on a multi-mode microplate reader (BioTek). The reaction rate was calculated using the 2-3 h time frame. The reaction rate at each concentration of compound was converted to percent inhibition using controls (i.e. reaction with no test compound and reaction with a known inhibitor) and IC50 values were calculated using software routines in Prism (GraphPad software).

Assay [2] concerns phospho-Serine 318 ATG13 (pATG13) in MiaPaCa-2 cells. The assay can be described thus: pATG13 levels of mutant KRas MiaPaCa-2 cells after treatment with ULK inhibitors in combination with trametinib (ELISA). It is filed as cell-based, human. The method, then:
Example 178. pATG13 Levels of Mutant KRas MiaPaCa-2 Cells after Treatment with ULK Inhibitors in Combination with Trametinib
MiaPaCa-2 human pancreatic cancer cells (10000 cells/well) were added to a 384-well tissue-culture treated plate in 50 μL of pre-warmed DMEM medium supplemented with 10% characterized fetal bovine serum (Invitrogen, Carlsbad, Calif.), 100 units/mL penicillin G, 100 μg/mL streptomycin, and 2.5% Horse Serum and allowed to grow overnight at 37° C., 5% CO2, and 95% humidity. The following day, 10 μL of media containing trametinib or DMSO as a control was added to wells. The final concentration of trametinib in wells was 250 nM. A dose response of a test compound (0.6 μL per well) was added. DMSO (0.6 μL) was added to control wells. The plate was briefly shaken to mix wells and then incubated at 37° C. overnight. The next day, the media was aspirated and cells were washed with Dulbecco's Phosphate Buffered Saline (Gibco). Cells were lysed using MPER lysis buffer (Pierce, Rockford, Ill.) containing Halt Phosphatase and Protease Inhibitors (Pierce, Rockford, Ill.) and Phosphatase inhibitor cocktail 2 (Sigma, St. Louis, Mo.) at 4° C. for 10 minutes with shaking.
Cellular levels of phospho-Serine 318 ATG13 (pATG13) were measured via an ELISA method. Total ATG13 Antibody (Cell Signaling Cat #13273) was used to coat the wells. The plate was incubated at 4° C. overnight and washed with ELISA wash buffer (Biolegend Cat #421601). The wells were then blocked with assay diluent (Biolegend Cat #421203) for 1 hour at room temperature. Plate wells were washed with ELISA wash buffer. Cell lysate was added to wells and incubated at room temperature for 2 hours. Plate wells were washed with ELISA wash buffer. Biotinylated pS318-ATG13 antibody (Rockland Immunochemicals Cat #600-401-C49) was diluted in assay diluent and added to each well and incubated at room temperature for 1 hour. Plate wells were washed with ELISA wash buffer. Streptavidin linked to horseradish peroxidase (Thermo Fisher Cat #21140) was diluted in assay diluent and added to each well and incubated at room temperature for 1 hour. Plate wells were washed with ELISA wash buffer. High sensitivity TMB substrate (Biolegend Cat #421101) was added to each well and incubated at room temperature for 20 minutes. The reaction was stopped with 2N Sulfuric Acid. The plate was analyzed at on a plate reader measuring absorbance at 450 nm and 540 nm (background). Signal was calculated by first subtracting the background absorbance at 540 nm from the absorbance at 450 nm for each well. Next, the background corrected absorbance at 450 nm from blank wells was subtracted from test wells. Data was compared to control wells to determine % ATG13 phosphorylation. GraphPad Prism was used to calculate IC50 values.
A general note: In an ELISA, binding on a coated surface is turned into a signal by an enzyme label.

The subject of assay [3] is phospho-Serine 318 ATG13 (pATG13), ULK kinase substrate, in A549 (KRAS mutant) cells. The assay can be described thus: pATG13 levels of mutant KRas A549 cells after treatment with ULK inhibitors in combination with trametinib (ELISA). It is filed as cell-based, human. Particulars: with 250 nM trametinib. The gist of the method: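 A549 cells grown overnight were treated overnight at 37 °C with a dose response of test compound plus 250 nM trametinib (final) or DMSO. Lysates were assayed by sandwich ELISA, with total ATG13 capture and biotinylated pS318-ATG13 detection read at 450 nm minus 540 nm, giving % phosphorylation against control and IC50.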

The target in assay [4] is T2, ULK1 kinase (Homo sapiens, UniProt O75385).
T2 construct: purchased Eurofins 14-959
T2 sequence (O75385 with tags, fused parts or gaps): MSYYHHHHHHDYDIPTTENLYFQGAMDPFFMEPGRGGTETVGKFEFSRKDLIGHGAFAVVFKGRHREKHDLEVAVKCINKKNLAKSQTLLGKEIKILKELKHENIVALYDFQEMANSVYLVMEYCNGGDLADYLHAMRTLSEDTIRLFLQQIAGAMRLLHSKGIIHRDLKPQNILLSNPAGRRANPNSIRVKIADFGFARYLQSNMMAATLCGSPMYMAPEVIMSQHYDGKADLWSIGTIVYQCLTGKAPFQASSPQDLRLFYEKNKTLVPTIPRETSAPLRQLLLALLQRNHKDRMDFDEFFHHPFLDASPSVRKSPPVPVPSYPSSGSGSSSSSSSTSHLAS
Put plainly: Biochemical assay for ULK1.2 (coupled pyruvate kinase/lactate dehydrogenase assay). Particulars: 19 nM ULK1 (Eurofins), myelin basic protein, 1 mM ATP. An outline of the steps: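 NADH-coupled PK/LDH read-out at 340 nm, run with 19 nM ULK1, 0.25 mg/mL myelin basic protein and 1 mM ATP. Buffer was 100 mM Tris pH 7.5 with 15 mM MgCl2 and 1% DMSO final. Monitoring was continuous for 6 hours at 30° C; rates from the 2-3 h window were converted to percent inhibition and fitted to a four-parameter curve for IC50.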

In another assay the target is T3, LRRK2 kinase (Homo sapiens, UniProt Q5S007).
T3 construct: purchased Thermo Fisher
T3 sequence (Q5S007 with tags, fused parts or gaps): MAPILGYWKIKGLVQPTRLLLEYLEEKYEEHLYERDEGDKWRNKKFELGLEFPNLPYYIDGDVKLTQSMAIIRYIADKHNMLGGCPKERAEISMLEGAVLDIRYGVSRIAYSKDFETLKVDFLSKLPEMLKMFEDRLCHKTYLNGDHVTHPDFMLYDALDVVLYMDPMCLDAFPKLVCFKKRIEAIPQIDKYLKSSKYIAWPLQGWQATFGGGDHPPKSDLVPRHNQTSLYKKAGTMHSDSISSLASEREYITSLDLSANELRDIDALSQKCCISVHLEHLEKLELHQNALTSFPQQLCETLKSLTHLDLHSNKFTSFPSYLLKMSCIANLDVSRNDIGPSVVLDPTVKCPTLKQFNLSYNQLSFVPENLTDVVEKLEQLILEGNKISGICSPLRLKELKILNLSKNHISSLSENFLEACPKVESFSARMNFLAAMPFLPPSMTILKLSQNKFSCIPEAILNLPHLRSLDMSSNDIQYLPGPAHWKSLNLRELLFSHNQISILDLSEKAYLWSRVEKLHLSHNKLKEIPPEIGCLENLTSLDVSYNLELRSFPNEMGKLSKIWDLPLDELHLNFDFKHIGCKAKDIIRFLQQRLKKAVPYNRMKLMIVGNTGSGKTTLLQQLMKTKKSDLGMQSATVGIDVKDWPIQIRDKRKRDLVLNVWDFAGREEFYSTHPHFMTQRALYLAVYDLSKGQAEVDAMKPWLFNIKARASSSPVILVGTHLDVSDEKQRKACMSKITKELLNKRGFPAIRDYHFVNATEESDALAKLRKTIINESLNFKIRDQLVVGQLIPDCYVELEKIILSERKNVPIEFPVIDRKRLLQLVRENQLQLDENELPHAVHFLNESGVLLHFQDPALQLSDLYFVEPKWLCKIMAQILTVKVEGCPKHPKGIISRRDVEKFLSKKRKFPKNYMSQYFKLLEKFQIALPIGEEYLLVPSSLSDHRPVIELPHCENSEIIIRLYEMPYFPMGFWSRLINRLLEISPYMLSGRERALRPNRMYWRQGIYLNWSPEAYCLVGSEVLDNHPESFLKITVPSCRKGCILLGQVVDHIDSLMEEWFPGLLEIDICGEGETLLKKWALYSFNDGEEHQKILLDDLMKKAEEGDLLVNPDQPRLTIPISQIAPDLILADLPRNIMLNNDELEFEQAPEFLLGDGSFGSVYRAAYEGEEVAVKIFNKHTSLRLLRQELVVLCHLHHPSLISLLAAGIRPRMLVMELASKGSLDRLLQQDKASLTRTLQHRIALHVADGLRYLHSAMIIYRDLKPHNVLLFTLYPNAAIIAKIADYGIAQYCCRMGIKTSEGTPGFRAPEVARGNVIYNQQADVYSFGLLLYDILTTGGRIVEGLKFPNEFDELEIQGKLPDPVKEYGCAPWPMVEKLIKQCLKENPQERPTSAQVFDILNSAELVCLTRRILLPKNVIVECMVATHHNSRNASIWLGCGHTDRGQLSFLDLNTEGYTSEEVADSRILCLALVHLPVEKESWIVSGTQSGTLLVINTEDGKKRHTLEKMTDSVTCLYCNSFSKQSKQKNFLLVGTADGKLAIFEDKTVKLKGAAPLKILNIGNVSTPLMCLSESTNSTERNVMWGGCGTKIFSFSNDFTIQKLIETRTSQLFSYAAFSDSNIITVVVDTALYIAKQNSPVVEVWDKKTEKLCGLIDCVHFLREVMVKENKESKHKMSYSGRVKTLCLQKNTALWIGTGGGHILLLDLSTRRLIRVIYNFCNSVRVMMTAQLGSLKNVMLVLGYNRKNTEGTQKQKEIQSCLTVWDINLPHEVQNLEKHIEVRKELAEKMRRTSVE
The assay can be described thus: Biochemical assay for LRRK2 (coupled pyruvate kinase/lactate dehydrogenase assay). The note with it: 26.4 nM LRRK2 (residues 970-2528), 0.1 mM peptide substrate, 1 mM ATP.

For a further assay, the target named is T4, ULK2 kinase (Homo sapiens, UniProt Q8IYT8).
T4 construct: purchased Eurofins 14-772
T4 sequence (Q8IYT8 with tags, fused parts or gaps): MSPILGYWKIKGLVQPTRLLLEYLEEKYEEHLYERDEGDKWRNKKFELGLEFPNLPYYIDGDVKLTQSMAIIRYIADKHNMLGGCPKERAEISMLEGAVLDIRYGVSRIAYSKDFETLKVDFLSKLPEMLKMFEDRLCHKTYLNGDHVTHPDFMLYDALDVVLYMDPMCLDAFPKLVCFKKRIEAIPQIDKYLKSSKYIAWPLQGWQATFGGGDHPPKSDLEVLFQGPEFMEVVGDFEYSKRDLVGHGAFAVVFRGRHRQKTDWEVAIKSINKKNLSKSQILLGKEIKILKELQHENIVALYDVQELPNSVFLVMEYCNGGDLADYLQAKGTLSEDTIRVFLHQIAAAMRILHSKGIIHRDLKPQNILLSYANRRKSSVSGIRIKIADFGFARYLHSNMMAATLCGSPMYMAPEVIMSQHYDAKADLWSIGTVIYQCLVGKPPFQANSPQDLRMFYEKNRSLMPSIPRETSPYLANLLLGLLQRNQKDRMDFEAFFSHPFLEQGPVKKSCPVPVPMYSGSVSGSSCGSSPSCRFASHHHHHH
The assay can be described thus: Biochemical assay for ULK2 (coupled pyruvate kinase/lactate dehydrogenase assay). The note with it: 9.7 nM ULK2 (Eurofins), myelin basic protein, 1 mM ATP; read-out: ULK2.2. On the procedure:
Example 176. Biochemical Assay for ULK2
Activity of ULK2 kinase was determined spectroscopically using a coupled pyruvate kinase/lactate dehydrogenase assay that continuously monitors the ATP hydrolysis-dependent oxidation of NADH (e.g., Schindler et al. Science (2000) 289: 1938-1942). Assays were conducted in 384-well plates (100 uL final volume) using 9.7 nM ULK2 (Eurofins CAT #14-772), 0.25 mg/mL myelin basic protein, 1.5 units pyruvate kinase, 2.1 units lactate dehydrogenase, 1 mM phosphoenol pyruvate, 0.28 mM NADH and 1 mM ATP in assay buffer (100 mM Tris, pH 7.5, 15 mM MgCl2, 0.5 mM DTT, 0.1% octyl-glucoside, 0.002% (w/v) BSA, and 0.002% Triton X-100). Inhibition of ULK2 was measured by adding serial diluted test compound (final assay concentration of 1% DMSO). A decrease in absorption at 340 nm was monitored continuously for 6 hours at 30° C. on a multi-mode microplate reader (BioTek). The reaction rate was calculated using the 2-3 h time frame. The reaction rate at each concentration of compound was converted to percent inhibition using controls (i.e. reaction with no test compound and reaction with a known inhibitor) and IC50 values were calculated by fitting a four-parameter sigmoidal curve to the data using Prism (GraphPad software).

pIC50: −log10 of the molar value.

`Cc1nn([C@@H]2CCN(C)C2)cc1Nc1ncc(Br)c(NCCCN2CCOCCC2=O)n1` [Example 138]: the pIC50 is 7.00 to 7.60 against ULK1 kinase [1], 6.52 to 7.00 in assay [2] and 6.22 to 6.52 in assay [3].

For `Cc1nn(C2CCN(C(C)C)CC2)cc1Nc1ncc(Br)c(NCCCN2CCCOC2=O)n1` [Example 71], the pIC50 on ULK1 kinase [1] was 7.00 to 7.60; in assay [2] it was 6.52 to 7.00; in assay [3] it was less than 6.22.

As for `CCc1nn(C2CCN(CC)CC2)cc1Nc1ncc(Br)c(NCCCN2CCCCC2=O)n1` [Example 54], the pIC50 on ULK1 kinase [4] was 7.00 to 7.60; in assay [2], 6.52 to 7.00; in assay [3], 6.52 to 7.00.

For the compound `Cc1nn(C2CCN(C)C2)cc1Nc1ncc(Br)c(NCCCN2CCCOCC2=O)n1` (stereo not shown) [Example 118], the pIC50 at LRRK2 kinase is 7.00 to 9.00; on ULK1 kinase [1], 7.00 to 7.60; in assay [2], 6.52 to 7.00; in assay [3] it was 6.22 to 6.52.

Turning to `O=C1CCCCCN1CCCNc1nc(Nc2cnn(CCN3CCOCC3)c2)ncc1C(F)(F)F` [Example 96], the pIC50 is 7.00 to 7.60 at ULK1 kinase [4], 6.52 to 7.00 in assay [2] and 6.22 to 6.52 in assay [3].

Turning to `Cc1nn(C2CCN(C(C)C)CC2)cc1Nc1ncc(Cl)c(NCCCN2CCCOC2=O)n1` [Example 72], the pIC50 was 7.00 to 7.60 on ULK1 kinase [1], 6.52 to 7.00 in assay [2] and less than 6.22 in assay [3].

Turning to `Cc1nn(CCCN2CCCC2)cc1Nc1ncc(C(F)(F)F)c(NCCCN2CCCCCC2=O)n1` [Example 99], the pIC50 against ULK1 kinase [4] is 7.60 to 9.00; in assay [2] it was 7.00 to 8.00; in assay [3] it was 6.52 to 7.00; on ULK2 kinase, 6.30 to 7.00.

Take `CCN1CC[C@H](n2cc(Nc3ncc(C(F)(F)F)c(NCCCN4CCCCC4=O)n3)c(C)n2)C1` [Example 66]: the pIC50 against ULK1 kinase [4] was 7.00 to 7.60; in assay [2], 6.52 to 7.00; in assay [3], 6.52 to 7.00; on ULK2 kinase it was 6.30 to 7.00.

`Cc1nn([C@@H]2CCN(C)C2)cc1Nc1ncc(C(F)(F)F)c(NCCCN2CCOCCC2=O)n1` [Example 133]: the results for the pIC50 (at ULK1 kinase [4]; in assay [2]; in assay [3]) were 7.60 to 9.00, 7.00 to 8.00 and 7.00 to 8.00, respectively.

With `Cc1nn([C@@H]2CCN(C)C2)cc1Nc1ncc(Br)c(NCCCN2CCCCC2=O)n1` [Example 44], the pIC50 against ULK1 kinase [4] was 7.00 to 7.60; in assay [2] it was 6.52 to 7.00; in assay [3], 6.52 to 7.00; at ULK2 kinase, 6.30 to 7.00.

For the compound `CN1CCC(n2ccc(Nc3cc(NCCCN4CCCCC4=O)c(C(F)(F)F)cn3)n2)CC1` [Example 173], the figures for the pIC50 (on ULK1 kinase [1]; in assay [2]; in assay [3]) were 7.60 to 9.00, 7.00 to 8.00 and 7.00 to 8.00, respectively.

Take `Cc1nn([C@@H]2CCNC2)cc1Nc1ncc(Br)c(NCCCN2CCCCC2=O)n1` [Example 60]: the pIC50 was 7.00 to 7.60 against ULK1 kinase [4], 7.00 to 8.00 in assay [2], less than 6.22 in assay [3] and 6.30 to 7.00 on ULK2 kinase.

Turning to `Cc1nn(CCCN2CCOCC2)cc1Nc1ncc(C(F)(F)F)c(NCCCN2CCOCCC2=O)n1` [Example 129], the pIC50 at ULK1 kinase [4] was 6.30 to 7.00; in assay [2], less than 6.22; in assay [3] it was less than 6.22; at ULK2 kinase, less than 6.30.

Regarding `CCN1CCC(n2cc(Nc3cc(NCCCN4CCCCC4=O)c(C(F)(F)F)cn3)cn2)CC1` [Example 16], the pIC50 on ULK1 kinase [4] was 7.00 to 7.60; in assay [2], 7.00 to 8.00; in assay [3] it was 6.52 to 7.00; at ULK2 kinase it was 6.30 to 7.00.

For the origin of these results see US11518758B2, “Heteroarylaminopyrimidine amide autophagy inhibitors and methods of use thereof” (Deciphera Pharmaceuticals, LLC, priority 2019, dated 2022).
